Measured values reported in publication PMC6395531 (Journal of medicinal chemistry, 2019).

Tests used:
[1] = tested on: Salmonella typhimurium (TA98, TA100, TA1535, TA1537) and Escherichia coli (WP2 uvrA); test: Bacterial reverse mutation assay; conditions: presence and absence of S9; monotartaric salts; 1.5 to 5000 μg/plate
[2] = Pharmacokinetics of 29 in rats; conditions: male, Sprague-Dawley, rat, in vivo
[3] = Caco-2 bidirectional permeability; assay type: in vitro ADME; conditions: Table 3

Structure (SMILES)	mutagenicity in the TA1537 strain (Ames assay) [1]	AUC(0-inf) ([2]; iv, 1 mg/kg) [ng·h/mL]	AUC(0-inf) ([2]; po, 2 mg/kg) [ng·h/mL]	Caco-2 cells A-B [3] [×10⁻⁶ cm/s]
CCc1ccc2nc(N3CCC(N[C@@H]4CCCOC4)CC3)c(-c3nc(C)no3)cc2c1 [Compound 36, (R)-1-(6-ethyl-3-(3-methyl-1,2,4-oxadiazol-5-yl)quinolin-2-yl)-N-(tetrahydro-2H-pyran-3-yl)piperidin-4-amine]	showed a mutagenic response in the TA1537 strain but only in the absence of S9	–	–	–
CCc1ccc2nc(N3CCC(NCC4(C)COC4)CC3)c(-c3nc(C)no3)cc2c1 [Compound 35, 1-(6-ethyl-3-(3-methyl-1,2,4-oxadiazol-5-yl)quinolin-2-yl)-N-((3-methyloxetan-3-yl)methyl)piperidin-4-amine]	exhibited mutagenicity in the TA1537 strain in the presence and absence of S9	–	–	–
CCc1ccc2nc(N3CCC(N[C@H]4CCCC[C@@H]4O)CC3)c(-c3nc(C)no3)cc2c1 [Compound 34, (1S,2S)-2-((1-(6-ethyl-3-(3-methyl-1,2,4-oxadiazol-5-yl)quinolin-2-yl)piperidin-4-yl)amino)cyclohexanol]	exhibited mutagenicity in the TA1537 strain in the presence and absence of S9	–	–	–
CCc1ccc2nc(N3CCC(N[C@@H](C)C(C)C)CC3)c(-c3nc(C)no3)cc2c1 [Compound 33, (S)-1-(6-ethyl-3-(3-methyl-1,2,4-oxadiazol-5-yl)quinolin-2-yl)-N-(3-methylbutan-2-yl)piperidin-4-amine]	showed a mutagenic response in the TA1537 strain but only in the absence of S9	–	–	–
Cc1ccc2nc(N3CCC(NC4CCOCC4)CC3)c(-c3nc(C)no3)cc2c1 [Compound 29, 1-(6-methyl-3-(3-methyl-1,2,4-oxadiazol-5-yl)quinolin-2-yl)-N-(tetrahydro-2H-pyran-4-yl)piperidin-4-amine]	–	212	28.4	26.2
